Assay results from patent US8758802B2, “Methods of inhibiting cataracts and presbyopia” (University of Massachusetts, priority 2009, dated 2014).
Entries after “also recorded” stand apart in the source; their conditions may differ.

System: βL-crystallin
Assay: Dynamic light scattering of βL-crystallin solutions with added agents (aggregate size, hydrodynamic radius)
Assay type: biochemical, bovine
Conditions: for Effect on βL-crystallin aggregate size / de-clumping: SDS 0.1 mg/mL (below CMC), 0.2 mg/mL βL-crystallin in water, sulfate
Method: βL-crystallin (C5163 Sigma-Aldrich) and α-crystallin (C4163 Sigma-Aldrich) from a bovine eye lens were stored in a biological freezer. The four stock solutions prepared for these experiments were 2 mg/mL βL-crystallin in water, 2 mg/mL βL-crystallin in PBS, 2 mg/mL α-crystallin in water, and 0.15M NaCl in water. All water used in these experiments was filtered and deionized. A stock solution of 2 mg/mL βL-crystallin in water was prepared by mixing 10 mg of βL-crystallin with 5 mL water in a decontaminated 20 mL scintillation vial. A similar procedure was followed to prepare 2 mg/mL α-crystallin in water and 2 mg/mL βL-crystallin in PBS.
A dilution of these stock solutions was used to create 2 mL samples of 0.2 mg/mL βL-crystallin in water, 0.2 mg/mL α-crystallin in water, 0.2 mg/mL βL-crystallin, 0.15M NaCl in water, 0.2 mg/mL βL-crystallin, 0.6 mg/mL α-crystallin in water, and 0.2 mg/mL βL-crystallin in PBS.
An ALV instrument with an Ar laser (λ=514.5 nm) was used to collect DLS data from 35°-65° in 5° increments and from 70°-90° in 10° increments. An ALV5000 correlator was used to analyze the data. Glass DLS tubes (4 mL) were sonicated in an extremely dilute solution of Micro-90 for 1 hour and then rinsed with filtered deionized water eight times followed by acetone eight times. The concentration of crystallins in the lens is typically very high. However, dilute solutions of the crystallins are required for DLS characterization, as set forth by limitations imposed by the Zimm regime.
The hydrodynamic radius, Rh, can be determined using the Stokes-Einstein equation,
As mentioned earlier, α-crystallin acts as a chaperone protein in the lens as it either diminishes or inhibits aggregation. In order to determine the impact of α-crystallin and its chaperone abilities on βL-crystallin, a solution of 0.2 mg/mL βL-crystallin, 0.6 mg/mL α-crystallin in water at 23° C. was prepared for DLS. […] The addition of the chaperone was thereby seen to remove the aggregate.
In order to determine if the aggregation of the crystallins is electrostatic in nature, dynamic light scattering was accomplished on 0.2 mg/mL βL-crystallin in a 0.15M NaCl water solution, (FIG. 8).
The effect of SDS, sodium dodecyl sulfate (purchased from Sigma Aldrich) a […] surfactant on βL-crystallin deaggregation was studied as in Example 4. The CMC for SDS is 2.36 mg/ml, so the SDS concentration was maintained below that value.

[1] = 0.2 mg/mL βL-crystallin, 0.15M NaCl in water

SMILES | Effect on βL-crystallin aggregate size / de-clumping (listed as sodium dodecyl sulfate) | Effect on βL-crystallin aggregate size / de-clumping | Rh of βL-crystallin aggregate (slow mode) after addition of the salt (0.2 mg/mL βL-crystallin in 0.15M NaCl water solution, without salt 230 nm) [nm] | Effect of salt on fast mode (unaggregated βL-crystallin) [1] | Reduction in aggregate Rh upon addition of NaCl [1] | Effect on βL-crystallin aggregate size (about 0.15 M NaCl)
CCCCCCCCCCCCOS(=O)(=O)[O-].[Na+] [SDS, sodium dodecyl sulfate, reference compound] | no effect; also recorded: does not reduce βL-crystallin aggregate sizes | did not stimulate de-clumping | – | – | – | –
[Cl-].[Na+] [NaCl] | – | – | 120 | not significantly affected | two-fold reduction | decreases βL-crystallin aggregate size
